# Source: paper PMC4666608, “Metabolic Profiling of Chicken Embryos Exposed to Perfluorooctanoic Acid (PFOA) and Agonists to Peroxisome Proliferator-Activated Receptors” (PLoS ONE, 2015)
# Marks after values point to notes of the source that are not given here.
# Tested on: chicken embryos
# Experiment: Metabolic profiling of blood plasma (GC-MS, LC-MS, OPLS-DA)
# Type: in vivo, Gallus gallus domesticus
# Settings: for Mean concentration relative to control, feature Win006_C03 / Mean concentration relative to control, feature Win011_C02 (Isoleucine) / Mean concentration relative to control, feature Win027_C13 / Mean concentration relative to control, feature Win031_C03 (Citric acid) / Mean concentration relative to control, feature Win034_C08 (Tyrosine) / Mean concentration relative to control, feature Win034_C09 (Tyrosine) / Mean concentration relative to control, feature Win039_C07 / Mean concentration relative to control, feature Win043_C02 (Cystathionine) / Mean concentration relative to control, feature Win061_C01 / Mean concentration relative to control, feature Win066_C03 / Mean concentration relative to control, feature Win088_C02: GC
# Description: Controls were injected with 20 μL vehicle only (DMSO).
# Plasma was collected and stored at -70°C.
# Metabolites in allantoic fluid and blood plasma were analyzed using gas chromatography-mass spectrometry (GC-MS) and liquid chromatography-mass spectrometry (LC-MS) as described in S1 Methods. Prior to GC-MS and LC-MS analysis, allantoic fluid (100 μL) and blood plasma (50 μL) were extracted. To each sample, 900 μL (allantoic fluid) or 450 μL (blood plasma) of extraction buffer (90/10 v/v methanol:water) including all internal standards were added. Standards for GC-MS were proline, succinic acid, glutamic acid, salicylic acid, alpha-ketoglutarate, putrescine, myristic acid, hexadecanoic acid, cholesterol, and sucrose. Standards for LC-MS were Val-Tyr-Val, Leu-enkephalin, sulfadimethoxine and reserpine. Samples were homogenized by shaking in a bead mill at a frequency of 30 Hz for 3 minutes and proteins were precipitated at +4°C on ice. The samples were centrifuged at +4°C, 14000 rpm, for 10 min. Then, 200 μL supernatant was transferred to a GC microvial and 200 μL was transferred to an LC microvial, and solvents were evaporated. Samples from the four replicate experiments were analyzed using in chronological order and within each replicate experiment the run order of the individual samples was randomized.
# Multivariate statistical analyses of metabolite profiles were performed using the software package SIMCA-P version 13.0 (Umetrics, Umeå, Sweden). Data was centered and scaled to variance 1 (UV scaling) prior to modelling. To reduce unintended systematic variation caused by sample processing and instrument drift, GC-MS and LC-MS metabolite amounts (expressed as the area under the chromatographic peak) were normalized by Orthogonal Partial Least Squares analysis (O2PLS) prior to multivariate data analysis. O2PLS finds common (predictive) and unique (orthogonal) variation in two data matrices. If applied to find the common variation between the data matrix containing the measured metabolite concentrations and a matrix containing only the internal standards, the only common (predictive) variation expected is due to the unintended systematic variation. By deleting the contribution of the predictive latent variables, that variation can be removed from the data. Models obtained after this normalization contain in general less latent variables, and this simplification helps when deciding on the number of latent variables to be used. Following normalization, GC-MS and LC-MS data were analyzed together. Initially, a global Principal Component Analysis (PCA) was performed to get an overview of groups and trends and to identify outliers. Projections to latent structures by means of Orthogonal Partial Least Squares Discriminant Analysis (OPLS-DA) was used to model the relationship between the X-matrix (metabolite concentrations) and the Y matrix (class, i.e. exposure group or sex), and to find x-variables that were related to class belonging. OPLS-DA is a supervised prediction and regression method that rotates the projection plane to find the maximum covariance between the data and the class assignment. All groups were first analyzed together in a 5-class OPLS-DA and then each exposure group was analyzed against the control group in a 2-class OPLS-DA. Sex differences were analyzed both using the whole data set and in each group separately using 2-class OPLS-DA, with females and males as the two classes. Only variables with 80% or more nonzero values were included in the statistical models. […] The validity of each model was also checked using CV-ANOVA (ANOVA of the cross-validated residuals). A significance level of p < 0.05 was used. For each model, R ^2 X, R ^2 Y and Q ^2 values were calculated, where R ^2 X is a measure of the fraction of x variation modeled in the extracted latent variables, R ^2 Y is a measure of the fraction of y variation modeled and Q ^2 is an estimate of the predictive ability of the model and is calculated by cross-validation. […]
structure (smiles),measurement,setting,value
"O=C(O)C(F)(F)C(F)(F)C(F)(F)C(F)(F)C(F)(F)C(F)(F)C(F)(F)F [PFOA, perfluorooctanoic acid]","Mean concentration relative to control, feature Win006_C03",PFOA 50,1.1*
same,"Mean concentration relative to control, feature Win011_C02 (Isoleucine)",PFOA 50,1.1
same,"Mean concentration relative to control, feature Win027_C13",PFOA 50,0.9
same,"Mean concentration relative to control, feature Win031_C03 (Citric acid)",PFOA 50,1
same,"Mean concentration relative to control, feature Win034_C08 (Tyrosine)",PFOA 50,1.1
same,"Mean concentration relative to control, feature Win034_C09 (Tyrosine)",PFOA 50,1.1
same,"Mean concentration relative to control, feature Win039_C07",PFOA 50,1.3
same,"Mean concentration relative to control, feature Win043_C02 (Cystathionine)",PFOA 50,1.1
same,"Mean concentration relative to control, feature Win061_C01",PFOA 50,0.9
same,"Mean concentration relative to control, feature Win066_C03",PFOA 50,1
same,"Mean concentration relative to control, feature Win088_C02",PFOA 50,1
same,"Mean concentration relative to control, feature Win006_C03",PFOA 250,1.1*
same,"Mean concentration relative to control, feature Win011_C02 (Isoleucine)",PFOA 250,1.1*
same,"Mean concentration relative to control, feature Win027_C13",PFOA 250,0.8*
same,"Mean concentration relative to control, feature Win031_C03 (Citric acid)",PFOA 250,1
same,"Mean concentration relative to control, feature Win034_C08 (Tyrosine)",PFOA 250,1
same,"Mean concentration relative to control, feature Win034_C09 (Tyrosine)",PFOA 250,1.0
same,"Mean concentration relative to control, feature Win039_C07",PFOA 250,1.3
same,"Mean concentration relative to control, feature Win043_C02 (Cystathionine)",PFOA 250,1.1
same,"Mean concentration relative to control, feature Win061_C01",PFOA 250,0.9
same,"Mean concentration relative to control, feature Win066_C03",PFOA 250,1
same,"Mean concentration relative to control, feature Win088_C02",PFOA 250,1
same,"Mean concentration relative to control, feature 118.0284@2.480333 (C4H6O4)","LC, PFOA 50",1
same,"Mean concentration relative to control, feature 122.0486@0.675613","LC, PFOA 50",1.1
same,"Mean concentration relative to control, feature 126.0428@1.2278157 (Thymine)","LC, PFOA 50",1.1
same,"Mean concentration relative to control, feature 146.0362@0.7772238","LC, PFOA 50",1.1
same,"Mean concentration relative to control, feature 159.0686@1.1608156","LC, PFOA 50",1
same,"Mean concentration relative to control, feature 164.0449@0.7694838","LC, PFOA 50",1.1
same,"Mean concentration relative to control, feature 202.1024@5.0303197 (C8H14N2O4)","LC, PFOA 50",1.1
same,"Mean concentration relative to control, feature 203.1162@0.5130696","LC, PFOA 50",1.1
same,"Mean concentration relative to control, feature 213.2458@7.4887733","LC, PFOA 50",1
same,"Mean concentration relative to control, feature 215.047@1.6260729 (C5H14NO6P)","LC, PFOA 50",1.0
same,"Mean concentration relative to control, feature 226.0721@1.9460537","LC, PFOA 50",1
same,"Mean concentration relative to control, feature 231.0174@1.6241412","LC, PFOA 50",1
same,"Mean concentration relative to control, feature 233.1265@2.535991","LC, PFOA 50",1.1
same,"Mean concentration relative to control, feature 250.1317@2.1334834","LC, PFOA 50",1.1
same,"Mean concentration relative to control, feature 260.0508@0.69984084","LC, PFOA 50",0.6**
same,"Mean concentration relative to control, feature 276.0173@1.6283482","LC, PFOA 50",1
same,"Mean concentration relative to control, feature 278.0939@1.3354088","LC, PFOA 50",1
same,"Mean concentration relative to control, feature 293.0903@1.5739433","LC, PFOA 50",1
same,"Mean concentration relative to control, feature 307.2147@7.5065937 (C18H29NO3)","LC, PFOA 50",1.3**
same,"Mean concentration relative to control, feature 310.178@7.5343466","LC, PFOA 50",1
same,"Mean concentration relative to control, feature 339.3861@9.528681","LC, PFOA 50",1.4*
same,"Mean concentration relative to control, feature 342.2883@7.526812","LC, PFOA 50",0.9**
same,"Mean concentration relative to control, feature 348.0675@1.5761927","LC, PFOA 50",1
same,"Mean concentration relative to control, feature 355.9454@0.68034226","LC, PFOA 50",1
same,"Mean concentration relative to control, feature 362.1467@0.8461036","LC, PFOA 50",1.1
same,"Mean concentration relative to control, feature 366.1431@1.4228548","LC, PFOA 50",1
same,"Mean concentration relative to control, feature 373.296@9.044806","LC, PFOA 50",1
same,"Mean concentration relative to control, feature 375.3108@8.995564","LC, PFOA 50",1
same,"Mean concentration relative to control, feature 389.2686@9.046645","LC, PFOA 50",1
same,"Mean concentration relative to control, feature 407.0999@1.585909","LC, PFOA 50",1
same,"Mean concentration relative to control, feature 412.135@2.4779084 (C17H24N4O6S)","LC, PFOA 50",1
same,"Mean concentration relative to control, feature 444.3607@10.33052","LC, PFOA 50",0.9
same,"Mean concentration relative to control, feature 471.9819@0.685074","LC, PFOA 50",1
same,"Mean concentration relative to control, feature 489.1508@8.562614","LC, PFOA 50",0.8*
same,"Mean concentration relative to control, feature 509.1184@2.4798179","LC, PFOA 50",1
same,"Mean concentration relative to control, feature 525.2855@8.361063","LC, PFOA 50",1.1
same,"Mean concentration relative to control, feature 545.2492@8.463657","LC, PFOA 50",1.1
same,"Mean concentration relative to control, feature 558.4095@9.459733","LC, PFOA 50",1.2
same,"Mean concentration relative to control, feature 565.1902@0.7699907","LC, PFOA 50",1.1
same,"Mean concentration relative to control, feature 577.2747@9.25652","LC, PFOA 50",1
same,"Mean concentration relative to control, feature 581.1643@0.77029324","LC, PFOA 50",1.1
same,"Mean concentration relative to control, feature 634.2403@1.9467853","LC, PFOA 50",1
same,"Mean concentration relative to control, feature 644.1614@0.7647065","LC, PFOA 50",1.1
